ChEMBL document CHEMBL1201862, “PubChem BioAssay data set” (2004)
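Results reflect a 48-hour exposure of cells in 96-well plates to compound at five concentrations. Here, GI50 denotes the concentration required for 50% inhibition of growth.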 The source made the active and inactive calls. Cut-off read from the data, not from the text of the source: active = GI50 up to about 1.1 µM and inactive = higher.

What was measured:
Test in all cases: DTP human tumour cell line panel, 48 h
SK-OV-3 = tested on: SK-OV-3
ACHN = tested on: ACHN
SNB-75 = tested on: SNB-75
M14 = tested on: M14
MDA-MB-435 = tested on: MDA-MB-435
KM12 = tested on: KM12
HCC 2998 = tested on: HCC 2998
BT-549 = tested on: BT-549
NCI-H522 = tested on: NCI-H522
SK-MEL-2 = tested on: SK-MEL-2
OVCAR-8 = tested on: OVCAR-8
SW-620 = tested on: SW-620
RXF 393 = tested on: RXF 393
NCI/ADR-RES = tested on: NCI/ADR-RES
PC-3 = tested on: PC-3
786-0 = tested on: 786-0
MCF7 = tested on: MCF7
NCI-H23 = tested on: NCI-H23
SR = tested on: SR

Measured: GI50

O=C1Cc2cc3ccccc3nc2-c2ccccc2N1
inactive: SK-OV-3 38 µM | ACHN 54.7 µM | SNB-75 24.7 µM | M14 > 100 µM | MDA-MB-435 > 100 µM | KM12 > 100 µM | HCC 2998 31.4 µM | BT-549 92.9 µM | NCI-H522 26.7 µM | SK-MEL-2 > 100 µM | OVCAR-8 35.3 µM | SW-620 > 100 µM | RXF 393 70.5 µM | NCI/ADR-RES 31.6 µM | PC-3 > 100 µM | 786-0 35.1 µM | MCF7 49 µM | NCI-H23 > 100 µM

N=C(c1ccc(-c2cn3cc(C(=N)N4CCCC4)ccc3n2)cc1)N1CCCC1
inactive: SK-OV-3 > 100 µM | ACHN > 100 µM | SNB-75 > 100 µM | M14 > 100 µM | MDA-MB-435 > 100 µM | KM12 > 100 µM | BT-549 > 100 µM | NCI-H522 > 100 µM | SK-MEL-2 > 100 µM | OVCAR-8 > 100 µM | SW-620 > 100 µM | RXF 393 > 100 µM | SR > 100 µM | NCI/ADR-RES > 100 µM | PC-3 > 100 µM | 786-0 > 100 µM | NCI-H23 > 100 µM

O=C1OC2(c3ccccc31)c1cc(I)c(O)c(I)c1Oc1c2cc(I)c(O)c1I [ERYTHROSINE]
inactive: SK-OV-3 > 100 µM | ACHN 96.8 µM | SNB-75 > 100 µM | M14 68.2 µM | MDA-MB-435 > 100 µM | KM12 10.4 µM | BT-549 45.8 µM | NCI-H522 19.3 µM | SK-MEL-2 > 100 µM | OVCAR-8 > 100 µM | SW-620 > 100 µM | RXF 393 5.79 µM | SR > 100 µM | NCI/ADR-RES > 100 µM | PC-3 > 100 µM | 786-0 > 100 µM | MCF7 > 100 µM | NCI-H23 70 µM

CN(C)CC(CN(C)C)c1ccccn1
inactive: SK-OV-3 > 100 µM | ACHN > 100 µM | M14 > 100 µM | MDA-MB-435 > 100 µM | KM12 > 100 µM | BT-549 > 100 µM | NCI-H522 > 100 µM | SK-MEL-2 > 100 µM | OVCAR-8 > 100 µM | SW-620 > 100 µM | RXF 393 > 100 µM | SR > 100 µM | NCI/ADR-RES > 100 µM | PC-3 > 100 µM | 786-0 > 100 µM | MCF7 > 100 µM | NCI-H23 > 100 µM

Cc1oc2nc(N(C)C)nc(NN)c2c1C
inactive: ACHN > 100 µM | SNB-75 > 100 µM | M14 > 100 µM | MDA-MB-435 > 100 µM | KM12 > 100 µM | HCC 2998 > 100 µM | BT-549 > 100 µM | NCI-H522 > 100 µM | SK-MEL-2 > 100 µM | OVCAR-8 > 100 µM | SW-620 > 100 µM | RXF 393 > 100 µM | NCI/ADR-RES > 100 µM | PC-3 > 100 µM | 786-0 > 100 µM | NCI-H23 > 100 µM

Cc1n[nH]c(=S)n1/N=C/c1ccc(-c2ccc(Cl)cc2)o1
inactive: ACHN 63.7 µM | SNB-75 31.9 µM | M14 > 100 µM | MDA-MB-435 > 100 µM | KM12 > 100 µM | BT-549 11.3 µM | NCI-H522 > 100 µM | SK-MEL-2 29.8 µM | OVCAR-8 93.1 µM | SW-620 > 100 µM | RXF 393 43 µM | SR > 100 µM | NCI/ADR-RES > 100 µM | PC-3 > 100 µM | 786-0 > 100 µM | MCF7 > 100 µM | NCI-H23 39.6 µM

COc1ccc2c(CC(=O)O)cc(=O)oc2c1
inactive: ACHN > 100 µM | M14 > 100 µM | MDA-MB-435 > 100 µM | KM12 > 100 µM | HCC 2998 > 100 µM | BT-549 > 100 µM | NCI-H522 > 100 µM | OVCAR-8 > 100 µM | SW-620 > 100 µM | RXF 393 > 100 µM | SR > 100 µM | NCI/ADR-RES > 100 µM | PC-3 > 100 µM | 786-0 > 100 µM | MCF7 > 100 µM | NCI-H23 > 100 µM

CCOC(=O)c1cc(C2CCN(Cc3ccccc3)C2=O)c(C(=O)/C=C(/C)N)[nH]1 (stereo not given)
inactive: SK-OV-3 70.5 µM | ACHN > 100 µM | SNB-75 > 100 µM | M14 > 100 µM | MDA-MB-435 > 100 µM | KM12 > 100 µM | HCC 2998 > 100 µM | BT-549 > 100 µM | NCI-H522 57.3 µM | SK-MEL-2 > 100 µM | OVCAR-8 65.5 µM | SW-620 > 100 µM | RXF 393 > 100 µM | NCI/ADR-RES 72.1 µM | PC-3 > 100 µM | 786-0 55.6 µM | MCF7 96.6 µM | NCI-H23 > 100 µM

O=C1CSC(c2cccc(Oc3ccccc3)c2)N1c1ccc(Cl)cc1 (stereo not given)
inactive: SK-OV-3 66.4 µM | ACHN 26.1 µM | SNB-75 28 µM | M14 15 µM | MDA-MB-435 23.2 µM | KM12 21.3 µM | BT-549 27.7 µM | NCI-H522 16.3 µM | SK-MEL-2 18.5 µM | OVCAR-8 34.7 µM | SW-620 33.6 µM | RXF 393 20.4 µM | SR 14 µM | NCI/ADR-RES 24.4 µM | PC-3 23 µM | 786-0 31.8 µM | MCF7 15.3 µM | NCI-H23 25.5 µM

COC(=O)C1Cc2c([nH]c3ccccc23)-c2[nH]c3ccccc3c2CC(NC(C)=O)C(=O)NCC(=O)NCC(=O)N1 (stereo not given)
inactive: SK-OV-3 > 100 µM | ACHN > 100 µM | SNB-75 > 100 µM | M14 > 100 µM | MDA-MB-435 > 100 µM | KM12 > 100 µM | BT-549 > 100 µM | NCI-H522 > 100 µM | SK-MEL-2 > 100 µM | OVCAR-8 > 100 µM | SW-620 > 100 µM | RXF 393 > 100 µM | NCI/ADR-RES > 100 µM | PC-3 > 100 µM | 786-0 > 100 µM | NCI-H23 > 100 µM

CCNCCC1(CC)C(=O)NC(=O)NC1=O
inactive: SK-OV-3 > 100 µM | ACHN > 100 µM | SNB-75 > 100 µM | M14 > 100 µM | MDA-MB-435 > 100 µM | KM12 > 100 µM | BT-549 > 100 µM | NCI-H522 > 100 µM | SK-MEL-2 > 100 µM | OVCAR-8 > 100 µM | SW-620 > 100 µM | RXF 393 > 100 µM | SR > 100 µM | NCI/ADR-RES > 100 µM | PC-3 > 100 µM | 786-0 > 100 µM | MCF7 > 100 µM | NCI-H23 > 100 µM

Cc1ccc(-n2cc(-c3ccc(Cl)cc3)c3c(N/N=C4\SCC(=O)N4C)ncnc32)cc1
inactive: SK-OV-3 2.54 µM | ACHN 7.36 µM | M14 4.78 µM | MDA-MB-435 4.23 µM | KM12 7.96 µM | BT-549 15.6 µM | NCI-H522 5.27 µM | SK-MEL-2 2.48 µM | OVCAR-8 5.09 µM | SW-620 16.3 µM | RXF 393 7.18 µM | SR 20.7 µM | NCI/ADR-RES 6.65 µM | PC-3 2.72 µM | 786-0 3.39 µM | NCI-H23 3.9 µM
